Experimental data published in patent US5962509A, “Dithiolylidene acetamide derivatives” (SSP Co., Ltd., priority 1997, dated 1999).

System: ovolysozyme
Assay: AGE formation inhibitory action: formation of lysozyme dimer (crosslinking) on incubation with xylose, SDS-PAGE with silver staining
Assay type: biochemical
Details: 1 mg/ml ovolysozyme, 100 mM xylose, pH 7.4 phosphate-buffered saline, 37° C., 21 days; dimer (28.8 Kda) formation relative to control
Description: Solutions of the test compound shown in Table 1 in dimethyl sulfoxide, said solutions containing said test compound at various concentrations, were each added together with 1 mg/ml of ovolysozyme and 100 mM of xylose to a phosphate-buffered physiological saline of pH 7.4. Each reaction mixture was then incubated at 37° C. for 21 days. A portion of the reaction mixture, said portion being in a predetermined amount, was then separated by sodium lauryl sulfate-polyacrylamide gel electrophoresis (SDS-PAGE). After the electrophoresis, the gel was treated by silver staining to stain proteins. AGE formation inhibitory action of the test compound was calculated in terms of 50% inhibitory concentration by image-processing and analyzing the degree of formation of the dimer (28.8 Kda) of lysozyme (14.4 Kda) relative to that in a control, that is, a reaction mixture not added with the test compound while making use of NIH Image Ver. 1.55.

SMILES	AGE formation inhibitory action, 50% inhibitory concentration (IC50) [µg/mL]
NN=C(N)N [Amionoguanidine, aminoguanidine]	30
CCCN(CCC)C(=O)C(CCC(=O)O)NC(=O)C=C1SC=CS1 (centres unmarked) [Example 1, 5-(dipropylamino)-4-((2-(1,3-dithiol-2-ylidene)acetyl)amino)-5-oxopentanoic acid]	30
